Experimental data from patent US7625887B2, “Receptor agonists” (Takeda Pharmaceutical Company Limited, priority 2003, dated 2009).

Experiments:
NCI-H716 cells = experiment: intracellular cAMP production increasing action in NCI-H716 cells; assay type: cell-based, human; details: bile acid 50 μM, 2 hrs; production amount in TLCA (50 μM) was 100%; Base 11
THP-TGR5 cells = experiment: suppression of LPS induced TNF α secretion in THP-TGR5 cells; assay type: cell-based, human; details: bile acid 50 μM, non-addition: 11 with LPS, 2.7 without LPS
Description: TGR5 high expression cells were established by introducing TGR5 gene into human macrophage cells line THP-1. According to a conventional method, pcDNA-TGR5 incorporating cDNA of human TGR5 in pcDNA3.1 (Invitrogen) was prepared. Then, THP-1 was cultured in a medium (RPMI1640 10% FBS), and pcDNA-TGR5 was introduced thereinto using lipofectamine (Gibco BRL) according to conventional methods. Thereafter, G418 (Gibco BRL) was added to the medium to select resistant strains, and cells line, THP-TGR5 that expresses TGR5 stably and highly was established.
THP-TGR5 thus obtained was diluted to a concentration of 1×10^5/well and cultured overnight in a 96 well plate in the presence of 10^−8M phorbol ester (Wako Pure Chemical Industries, Ltd.). THP-TGR5 after culture was cultured for 1 hr in a medium containing a test compound or a control medium (0.1 ml) free of a test compound, 0.1 ml of a medium containing the same concentration of the test compound or a control medium free of the test compound, each of which containing LPS for induction of TNF α secretion was added (concentration at the time of addition 50 ng/ml) and the mixture was incubated at 37° C. under 5% CO2 for 14 hrs. The culture supernatant was collected and the TNF α content was measured with the growth suppressing effect on the TNF sensitive cell line L929 (RIKEN Institute) as an index.
L929 cells were seeded in a 96 well plate at 1.2×10^4/well and incubated overnight at 37° C. under 5% CO2. The obtained culture product was cultured overnight in a medium (phenol red free Dulbecco's Modified Eagle Medium (Invitrogen) supplemented with 10% fetal bovine serum (Invitrogen), 100 U/ml penicillin and 100 μg/ml streptomycin), which contained the aforementioned THP-TGR5-containing culture supernatant and 2 μg/ml Actinomycin D (Wako Pure Chemical Industries, Ltd.). The TNF α content was determined by measuring the growth of the L929 cells in the obtained culture product using a Cell Counting Kit-8 (Wako Pure Chemical Industries, Ltd.). As the standard sample, human recombinant TNF α (Genzyme) was used.

[1] = test system: guinea pig peripheral blood mononuclear cells; experiment: TNF secretion in LPS-stimulated guinea pig peripheral blood mononuclear cells; assay type: cell-based; details: 16 hrs, bile acid 50 μM; non-addition: 160 with LPS, 13 without
Description: (§1) The peripheral blood was taken from guinea pig, and mononuclear cell fraction was obtained by a density separation method using Ficoll-Paque PLUS (Amersham Pharmacia). The fraction at a concentration of 1×10^5/well was cultured for 16 hrs in the presence of […] LPS in a 96-well plate upon addition of bile acid or a test compound. The culture supernatant was collected and TNF and IL-6 in the supernatant were quantitated.
The TNF secretion amount in the culture supernatant was measured in the same manner as in Experimental Example 7.

[2] = test system: guinea pig peripheral blood mononuclear cells; experiment: IL-6 secretion in LPS-stimulated guinea pig peripheral blood mononuclear cells; assay type: cell-based; details: 16 hrs, bile acid 50 μM; non-addition: 520 with LPS, 32 without
Description: as §1
The quantitation of IL-6 in the culture supernatant was performed using IL-6 dependent cell line 7TD1 (RIKEN Institute) with its growth promoting action as an index. First, 7TD1 cells were suspended in a basic medium (RPMI1640 (Invitrogen) supplemented with 1% non-essential amino acid (Invitrogen) and 55 μM 2-mercaptoethanol (Invitrogen)) and seeded in a 96-well plate at a concentration of 2×10^3/well. Immediately after seeding, peripheral blood mononuclear cell culture supernatant diluted with a dilution medium (the above-mentioned basic medium supplemented with 10% FBS) was added and the cells were cultured for 2 days. The IL-6 content was determined by measuring the growth of the 7TD1 cells in the obtained culture product using a CellTiter-Glo (Promega). As the standard sample, human recombinant IL-6 (Genzyme) was used.

[3] = test system: guinea pig intestine primary culture cells; experiment: GLP-1 secretion from guinea pig intestine primary culture cells; assay type: cell-based; details: bile acid 50 μM, 90 min
Description: Colon mucous membrane of guinea pig (Hartley, male, Charles River Japan, Inc.) was removed and subjected to an enzyme treatment to give a cell dispersion according to the following method.
The enzyme solution used was obtained by dissolving 5 mg/ml Collagenase (Sigma), 5 mg/ml Hyaluronidase (Sigma) and 0.5 mg/ml DNaseI (Sigma) in a medium. The medium used was Dulbecco's Modified Eagle Medium (DMEM, Invitrogen) supplemented with 4.5 g/l Glucose, 5% FBS (Invitrogen), 100 units/ml Penicillin (Invitrogen), 100 μg/ml Streptomycin (Invitrogen), 50 μg/ml Gentamicin (Invitrogen) and 20 mM Hepes (pH 7.3). After digestion by the enzyme solution at 37° C., the tissue sections were prepared into dispersed cells by passing through a pipette 4 times and the cells were collected. The collected cells were washed with a buffer (incubation buffer) obtained by adding 5.5 mM Glucose and 0.1% BSA to a modified Krebs-Ringer bicarbonate buffer (KRBH, 116 mM NaCl, 4.7 mM KCl, 1.2 mM KH2PO4, 1.2 MM MgSO4, 2.5 mM CaCl2, 25 mM NaHCO3, 24 mM HEPES, pH 7.3), and preincubated at 37° C. under 5% CO2 for 30 min. 0.1 μM Phorbol ester (Wako), 1% DPPIV inhibitor (Linco) and a test compound were added to the above-mentioned incubation buffer, and the obtained buffer was added to the cells after the aforementioned preincubation and incubated for 90 min. The culture supernatant was collected and cryopreserved. The concentration of GLP-1 released in the culture supernatant was measured using an ELISA kit (Linco).

## C[C@H](CCC(=O)NCCS(=O)(=O)O)[C@H]1CC[C@H]2[C@@H]3CC[C@@H]4C[C@H](O)CC[C@]4(C)[C@H]3CC[C@]12C [TLCA, taurolithocholic acid, reference compound]
NCI-H716 cells
  cAMP production increasing activity (%): 100%
THP-TGR5 cells
  TNF α: 0.22 ng/mL
[1]
  TNF α: 60 pg/mL
[2]
  IL-6: 260 pg/mL
[3]
  GLP-1 (% relative to non-addition): 400 % relative to non-addition
